Consider 2 compounds from patent US20230181535A1, “UBIQUITIN-LIGASE INHIBITORS FOR THE TREATMENT OF CANCER” (FUNDACIÓN PROFESOR NOVOA SANTOS, priority 2020, published 2023).

One assay deals with renal cancer ACHN cells. Put plainly: BrdU proliferation assay, ACHN. It counts as cell-based, human. The note with it: 48 h. Here is the method:
(§1) For BrdU assays, 1×10^4 of indicated cells were plated per well into a 96-well plate. After 24 h, cells were treated with the indicated inhibitors for 48 h. Three independent experiments were plated with six replicates per each condition. Cells were treated with […] BrdU for 2 h. BrdU incorporation into newly synthesized DNA was measured using a cell proliferation colorimetric immunoassay kit according to the manufacturer's instructions (Roche, Switzerland). Results are expressed as mean±S.D. Results are represented as percentage of positive cells (mean±S.D) of three independent experiments.

Assay [1] relates to normal epithelial MDCK cell line. Put plainly: MTT cell viability assay, MDCK. It counts as cell-based. The settings on record: compared with Hakai-MDCK. Here is the method: For cytotoxicity assays, 1×10^4 cells were seeded per well into a 96-well plate. After 24 h cells were treated with the indicated inhibitors for 72 h and a MTT colorimetric cell viability assay was performed following manufacturer's instructions (Sigma Aldrich, St Louis, Mo.). Absorbance was measured at 570 and 630 nm using a Multiskan Plus Reader (Nanoquant Infinite M200 Tecan Trading AG, Switzerland). Dose-response curves were designed with Graph Pad Prism Software and the half-maximal inhibitory concentration (IC50) values were calculated. Represented data are the mean±SEM of at least three independent experiments with six replicates per condition.
(Formazan colour is commonly taken as a measure of viable cells.)

Another assay has as its system Hakai-MDCK cells. Description: Invasion assay, Hakai-MDCK. It counts as cell-based. The note with it: treated 48 h. On the procedure: For invasion assays, cells were treated with Hakin-1 or DMSO as vehicle for 48 h using 1% FBS during the last 24 hours. 3×10^5 MDCK, MDCK-Hakai or LoVo cells were seeded in a cell invasion chamber (Cell invasion assay kit, Chemicon International) containing medium with 2% FBS. After 72 hours for MDCK and MDCK-Hakai Invasive and 16 h for LoVo cells, invasive cells invaded that reach the lower chamber containing 30% FBS were fixed and stained with crystal violet (Sigma Aldrich, St Louis, Mo.) following the manufacturer's specifications. For migration assays, HT29 cells were cultured with Hakin-1 or DMSO as vehicle for 48 h, using medium without serum the last 24 h. In the cell migration chamber were seeded 3×10^5 HT29 cells (Cell migration kit, Millipore, Bedford, Mass.) containing medium without serum. After 16 h, migrated cells in the lower chamber containing serum with 30% FBS were stained with crystal violet and counted following the manufacturer's specifications. For both invasion and migration assays cells were counted in five fields photographed with an Olympus microscope using a 20× objective, experiments were performed in triplicates for each condition and the assays were repeated at least three times. Results are expressed as mean±SD.

Another assay relates to HT-29 cells. Description: Immunofluorescence of E-cadherin, HT-29. Type of assay: cell-based, human. On the procedure:
For western blot analysis, cells were treated with the indicated inhibitors for 48 h and the whole cell extracts were obtained as described previously. Twenty micrograms of lysates were resolved on a 10% polyacrilamide SDS-PAGE followed by western blot analysis performed as previously described. For immunofluorescence assays cells were grown for 24 h on glass coverslips and treated with the indicated inhibitors for 48 h. Cells were fixed with 4% PFA for 15 min, permeabilized with 0.5% […] and incubated with E-cadherin antibody for 2 h. Coverslips were incubated with fluorescein-tagged secondary antibody (Dakopatts, Sweden) for […]. Finally coverslips were mounted with ProLong Gold antifade reagent (LifeTech, UK) and images were taken in epifluorescence microscope (Olympus) using 40× objective. Immunofluorescence of E-cadherin and DNA content analysis for FIGS. 22-23 were performed culturing of HT-29 human colorectal adenocarcinoma cell line in 384-well plates with densities of 3,000 cells per well in a total volume of 25 μl. After the completion of the staining, four images (2×2 array) of each well were taken with Vala Sciences' SIM™ with a 20× objective. Each image was acquired as a SIM Synthetic Focus with a z-stack range of 6 μm with 1 μm steps. The SIM Synthetic Focus feature will compile a “best focus” images from multiple images. One set of SIM Synthetic Focus images were taken in the DAPI channel for Hoechst 33342 staining, and another set of images were taken in the FITC channel for anti-E-cadherin-AlexaFluor488 labeling and analysed by Structured Illumination Microscopy (SIM™) platform to image the cells and Vala's CyteSeer® Cell-Cell Junction Algorithm to quantify the degree of expression and intracellular location of E-cadherin Vala's CyteSeer® Software can also measure relative DNA content by analyzing Total Integrated Intensity (TII) of the Nuclear Image (Ni) on the Nuclear Mask (Nm). This analysis was performed by Vala Science. Twenty compounds from were assayed in a “blinded” manner, at 2 test concentrations in 6 replicate wells for first assay and 3 replicate for second assay.

For assay [2], the system named is non-transformed epithelial MDCK cells. Put plainly: BrdU proliferation assay, MDCK. Type of assay: cell-based. The settings on record: 48 h. Here is the method:
as §1

`O=C(O)c1ccc(-n2nnnc2SCC(=O)c2ccc([N+](=O)[O-])cc2)cc1` [Hakin-1, 4-(5-[2-(4-nitrophenyl)-2-oxoethyl]thiol-1H-tetrazol-1-yl)benzoic acid]: the “cell proliferation (BrdU)” value in the assay with renal cancer ACHN cells was “inhibited cell proliferation”; in assay [2], “no effect was detected”. Besides, in assay [1], the “sensitivity to treatment (cell viability, MTT)” value is “more resistant”. Also, the cell invasion result in the assay on Hakai-MDCK cells is “decreased cell invasion”. Also, the “E-cadherin levels at cell-cell contacts (immunofluorescence)” value with HT-29 cells (48 h, vs DMSO) was “significant increase E-cadherin levels at cell-cell contacts”.
On to `O=C(O)c1ccc(-n2nnnc2SCC(O)c2ccc([N+](=O)[O-])cc2)cc1` (stereo not drawn) [MKH1], for which the “E-cadherin expression at cell-cell contacts (immunofluorescence, Image J)” value in the assay with HT-29 cells (48 hours, 5-100 μM, vs DMSO vehicle control) was “significantly increase expression of E-cadherin”.
